Reference: patent publication US7109043B2, “Fluorescent probe for magnesium ion determination” (Japan Science and Technology Corporation, priority 2000, dated 2006)
Entries after “also recorded” stand apart in the source; their conditions may differ. Like-named read-outs stand apart in the source and are kept apart here.

Tests used:
[1] = Binding constant to magnesium ion by fluorescence titration (Benesi-Hildebrand plot); details: for KMg (binding constant to Mg^2+): probe 10 μM in HEPES 10.0 mM, KCl 120.0 mM, NaCl 20.0 mM, EGTA 2.0 mM, pH 7.20, excitation 448 nm, fluorescence 505 nm; for KMg/KCa (selectivity to magnesium ion): ratio of binding constant to magnesium ion to binding constant to calcium ion
Experimental: (§1) Selectivities to magnesium ion (i.e., the ratio of binding constant to magnesium ion to the binding constant to calcium ion) of KMG-20 synthesized in Example 1 and KMG-27 synthesized in Example 4 were measured. More particularly, this measurement was carried out as follows:
(§2) The fluorescent indicator was dissolved in a solvent (HEPES 10.0 mM, KCl 120.0 mM, NaCl 20.0 mM, EGTA 2.0 mM, pH 7.20) to a concentration of 10 μM. To this solution, a metal salt solution (MgCl2, CaCl2) in the above-described solvent was added to a concentration of 0 to 500 mM, and fluorescence spectrum was measured.
(§3) The conditions of the fluorophotometer (Hitachi F4500) were as follows: excitation wavelength: 448 nm, slit width: excitation side: 2.5 nm, fluorescence side 2.5 nm, photomultiplier voltage: 700V, scanning rate: 240 nm/min.
The fluorescence intensities at the maximum fluorescence wavelength (505 nm) when the concentration of the metal ion was changed were measured, and the binding constants to Mg^2+ and Ca^2+ were calculated by using Benesi-Hildebrand plot method (J. Am. Chem. Soc. 71, 2703 (1949)).
For comparison, the binding constants of known magnesium probes commercially available from Molecular Probes, that is, mag-fura-2 (Proc. Natl. Acad. Sci. USA, 86, 2981 (1989)), mag-indo-1(J. Physiol, 475, 319 (1994)), mag-fura-5 (J. Physiol, 475, 319 (1994)) and Magnesium Green (J. Biol. Chem. 270, 18975 (1995)) are also shown in Table 1.

[2] = Binding constant to calcium ion by fluorescence titration (Benesi-Hildebrand plot); details: probe 10 μM in HEPES 10.0 mM, KCl 120.0 mM, NaCl 20.0 mM, EGTA 2.0 mM, pH 7.20; excitation 448 nm, fluorescence 505 nm
Experimental: as §1, §2, §3
The fluorescence intensities at the maximum fluorescence wavelength (505 nm) when the concentration of the metal ion was changed were measured, and the binding constants to Mg^2+ and Ca^2+ were calculated by using Benesi-Hildebrand plot method (J. Am. Chem. Soc. 71, 2703 (1949)). […]

[3] = test system: bovine vascular endothelial cells; assay: Measurement of magnesium ions in cells using fluorescent probe (No. 1), fluorescence microscopy; format: cell-based
Experimental: Magnesium ions in cells were measured using the fluorescent probe KMG-20 synthesized in Example 1. Since the fluorescent probe KMG-20 has an acetoxymethyl group, it has a high lipid solubility and is easy to transfer from the culture medium to the cell membrane. In the vicinity of the cell membrane, the acetoxymethyl group is removed by an ester hydrolysis enzyme in the cell and becomes again a water-soluble compound having a carboxyl group, so that it is diffused into the cytoplasm. Upon forming a complex with a magnesium ion, the fluorescence of KMG-20 is increased.
A solution of the fluorescent probe KMG-20 in DMSO (1.0 ml) was added to Hanks-HEPES buffer so as to attain a final concentration of 10.0 μM, and the mixture was subjected to ultrasonication. The culture medium in which bovine vascular endothelial cells had been cultured at 37° C. on a petri dish was replaced with the above-described KMG-20 solution, and the cells were incubated at 37° C. for 30 minutes. […] The excitation wavelength was 440 nm and the detection wavelength was 500–530 nm. For comparison, the cells before the treatment with the fluorescence probe were also observed with the fluorescence microscope.
(§4) To clarify the behavior of free magnesium ions in the cells, 5 μM carbonylcyanoid p-(trifluoromethoxy)phenylhydrazone (FCCP) was added. As a result, the entire cell was brightened. The change in the fluorescence intensity with time after the addition of FCCP was observed. […] It is known that magnesium ion usually binds to an oxygen atom in the phosphoric acid ester moiety of a phosphorylated substrate such as ATP, ADP, phosphorylated saccharide, nucleic acid or the like to neutralize the electric charge thereof, and serves as an acid catalyst, and that enzymes whose corresponding substrates are phosphoric acid ester compounds require magnesium ion as a co-factor. Since FCCP serves as a respiration inhibitor of mitochondria in the cells, the ATP activity in the cells is decreased and so the free magnesium ion level is increased, it is thought that KMG-20 formed a complex with magnesium ion, thereby increasing the fluorescence intensity.
(§5) Further, 10 μM acetylcholine was added to the cells so as to compulsively increase the calcium level in the cells.

[4] = test system: PC-12 cells; assay: Measurement of magnesium ions in cells using fluorescent probe (No. 2), fluorescence microscopy; format: cell-based, rat; details: for Change in fluorescence intensity after addition of FCCP: 5.0 μM FCCP (raises free magnesium ion level); for Staining / dispersion of the probe in cells: excitation 440 nm, detection 500–530 nm
Experimental: Behavior of magnesium ions in cells were measured using the fluorescent probe synthesized in Example 4.
Since this fluorescent probe KMG-20 has an acetoxymethyl group, it has a high lipid solubility and is easy to transfer from the culture medium to the cell membrane. In the vicinity of the cell membrane, the acetoxymethyl group is removed by an ester hydrolysis enzyme in the cell and becomes again a water-soluble compound having a carboxyl group, so that it is diffused into the cytoplasm.
A solution of the fluorescent probe in DMSO (1.0 ml) was added to Hanks-HEPES buffer so as to attain a final concentration of 10.0 μM, and the mixture was subjected to ultrasonication. The culture medium in which PC-12 cells (cloned nerve cells isolated from rat adrenal medulla chrome-philic cytoma) had been cultured at 37° C. on a petri dish was replaced with the fluorescent probe solution, and the cells were incubated at 37° C. for 30 minutes. […] The excitation wavelength was 440 nm and the detection wavelength was 500–530 nm. For comparison, the cells before the treatment with the fluorescence probe were also observed with the fluorescence microscope.
as §4, with “5.0” for “5”, “the fluorescent probe” for “KMG-20”
as §5

[5] = known commercial magnesium probes, literature values for comparison; cited from earlier work
[6] = known commercial magnesium probes, literature values for comparison; cited from earlier work; remark: listed apart in the source
[7] = 10 μM acetylcholine (increases calcium level in the cells)
[8] = 10.0 μM probe, 37° C. 30 minutes, fluorescence microscope

CC(=O)OCOC(=O)c1cc2cc3c4c(c2oc1=O)CCCN4CCC3 [KMG-20, (13-aza-3-oxa-4-oxotetracyclo[7.7.1.0<2,7>.0<13,17>]heptadeca-1(17),2(7),5,8-tetraene-5-ylcarbonyloxy)methyl acetate]
KMg (binding constant to Mg^2+) [1]: 100.0 M⁻¹
KMg/KCa (selectivity to magnesium ion) [1]: 3.0
KCa (binding constant to Ca^2+) [2]: 33.3 M⁻¹
Change in fluorescence intensity after addition of FCCP ([3]; 5 μM FCCP (raises free magnesium ion level)): fluorescence intensity was increased during 1 minute from the addition of FCCP
Change in fluorescence intensity after addition of acetylcholine [3, 7]: increase of the fluorescence intensity was not observed
Staining / dispersion of the probe in cells ([3]; 10.0 μM probe, 37° C. 30 minutes, excitation 440 nm, detection 500–530 nm): uniformly dispersed and stained the cells; also recorded: uniformly dispersed in the cytoplasm
Location of the probe in the cell [3, 8]: located in the vicinity of the nucleus

COC(=O)c1cc2cc3c4c(c2oc1=O)C(C)(C)CCN4CCC3(C)C [KMG-27, methyl-13-aza-10,10,16,16-tetramethyl-3-oxa-4-oxo-tetracyclo[7,7,1,0<2,7>.O<13,17>]heptadeca-1(17),2(7),5,8-tetraene-5-carboxylate]
KMg (binding constant to Mg^2+) [1]: 102.0 M⁻¹
KMg/KCa (selectivity to magnesium ion) [1]: 3.09
KCa (binding constant to Ca^2+) [2]: 33.0 M⁻¹
Change in fluorescence intensity after addition of FCCP [4]: increase in the fluorescent intensity was observed
Change in fluorescence intensity after addition of FCCP ([4]; listed as Example 4): fluorescence intensity was increased during 1 minute from the addition of FCCP
Change in fluorescence intensity after addition of acetylcholine [4, 7]: increase of the fluorescence intensity was not observed
Staining / dispersion of the probe in cells ([4]; 10.0 μM probe, 37° C. 30 minutes): uniformly dispersed in the cells
Staining / dispersion of the probe in cells ([4]; 10.0 μM probe, 37° C. 30 minutes, listed as Example 4): uniformly dispersed and stained the cells
Location of the probe in the cell [4, 8]: located in the vicinity of the nucleus

O=C([O-])COc1cc(NC(=O)c2ccc3c(c2)C(=O)OC32c3cc(Cl)c([O-])cc3Oc3cc([O-])c(Cl)cc32)ccc1N(CC(=O)[O-])CC(=O)[O-].[K+].[K+].[K+].[K+].[K+] [Magnesium Green]
KMg/KCa (selectivity to magnesium ion) [1]: 0.003
KMg (binding constant to Mg^2+) [5]: 500.0 M⁻¹
KCa (binding constant to Ca^2+) [6]: 166,660 M^−1

O=C(O)COc1cc2cc(-c3ncc(C(=O)O)o3)oc2cc1N(CC(=O)O)CC(=O)O [mag-fura-2]
KMg/KCa (selectivity to magnesium ion) [1]: 0.013
KMg (binding constant to Mg^2+) [5]: 526.3 M⁻¹
KCa (binding constant to Ca^2+) [6]: 40,000 M^−1

O=C(O)COc1cc(-c2cc3ccc(C(=O)O)cc3[nH]2)ccc1N(CC(=O)O)CC(=O)O [mag-indo-1]
KMg/KCa (selectivity to magnesium ion) [1]: 0.013
KMg (binding constant to Mg^2+) [5]: 370.4 M⁻¹
KCa (binding constant to Ca^2+) [6]: 28,570 M^−1
